Experimental data as given in US6350909B1, “Methoxymino-phenylacetamide derivatives and their utilization as pesticides” (Bayer Aktiengesellschaft, priority 1998, dated 2002).

Row | melting point | Compound
1 | 134 to 138 °C | COCC(=O)NC(=O)C(=NOC)c1ccccc1CO/N=C(\C)c1ccc(C(F)(F)F)cc1 [Example 1, 2-methoxy-N-(methoxyimino-{2-[1-(4-trifluoromethylphenyl)-ethylideneaminooxymethyl]-phenyl}-acetyl)-acetamide]
2 | 92 °C (dec.) | CON=C(C(=O)NC(=O)CCl)c1ccccc1CO/N=C(\C)c1ccc(C(F)(F)F)cc1 [Example 2, 2-chloro-N-(methoxyimino-{2-[1-(4-trifluoromethylphenyl)-ethylideneaminooxymethyl]-phenyl}-acetyl)-acetamide]
